pEC50: −log10 of the molar value.

In general, pEC50 refers to the EC50 on a negative log10 scale, so that one unit is a factor of ten.

Sequence of S1P1 (P21453 whole entry, species assumed): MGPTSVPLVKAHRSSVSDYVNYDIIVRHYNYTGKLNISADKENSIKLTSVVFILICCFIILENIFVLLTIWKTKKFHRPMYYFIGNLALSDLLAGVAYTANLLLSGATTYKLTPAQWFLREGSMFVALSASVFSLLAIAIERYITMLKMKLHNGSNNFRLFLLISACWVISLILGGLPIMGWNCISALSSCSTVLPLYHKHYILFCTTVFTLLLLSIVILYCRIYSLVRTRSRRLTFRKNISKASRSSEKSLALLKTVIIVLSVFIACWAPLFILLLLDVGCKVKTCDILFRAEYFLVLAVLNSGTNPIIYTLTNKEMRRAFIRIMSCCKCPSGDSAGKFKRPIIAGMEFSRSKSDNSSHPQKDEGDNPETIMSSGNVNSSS

The assay concerns the target S1P1 (Homo sapiens (Human), UniProt P21453). The assay can be described thus: 35S-GTPγS binding assay, S1P1 membranes. The class given is biochemical. The note with it: membranes from CHO cells expressing S1P1; read-out: S1P1 GTPyS EC50. The method, then:
Membranes were prepared from CHO cells expressing S1P1 or S1P3 for use in ligand and […] binding studies. Cells were suspended in 50 mM TRIS, pH 7.4, 2 mM EDTA, 250 mM Sucrose (buffer A) and 1× Complete protease inhibitor cocktail (Roche), and disrupted at 4° C. by nitrogen decompression using a cell disruption bomb (Parr Instrument). Following centrifugation at 1000 RPM for 10 min at 4° C., the supernatant was suspended in buffer A and centrifuged again at 19000 RPM for 60 min at 4° C. The pellet was then suspended in 10 mM HEPES, pH 7.4, 1 mM EDTA, 250 mM Sucrose (Buffer B), and 1× Complete EDTA-free protease inhibitor cocktail and homogenized using a potter. Membranes were flash frozen in liquid nitrogen and stored at −80° C. [33P]sphingosine 1-phosphate (3000 Ci/mmol; American Radiolabeled Chemicals, Inc.) was added to test compounds in DMSO. […] Binding was performed for 60 min at room temperature on a shaker and bound radioactivity was measured on a PerkinElmer 1450 MicroBeta counter. Specific binding was calculated by subtracting remaining radioactivity in the presence of 1000-fold excess of unlabeled S1P. Binding data were analyzed using the GraphPad Prism program.
The assay was initiated with the addition of 20 μl of 1.5 nM [35S]-GTPγS (1100 Ci/mmol; GE Healthcare) in assay buffer. After 60 min incubation at 30° C. on a shaker, plates were centrifuged for 10 min at 2000 RPM. Supernatant was discarded and membrane bound radioactivity was measured on a PerkinElmer 1450 MicroBeta counter. Triplicate samples were averaged and expressed as % response relative to SIP activation in absence of compound (n=2).
Background: GTPγS resists hydrolysis and so accumulates on activated G proteins.
In the case of `O=C(Nc1ccc(O)c(F)c1)c1cc(NC2CCCCC2)ncn1` [Example 1-14], the pEC50 is 5.80.

`NS(=O)(=O)c1ccc(NC(=O)c2cc(NC3CCCCC3)ncn2)cc1` [Example 1-17]: the negative-log EC50 (pEC50) is 5.70.

For the molecule `Cc1cc(O)ccc1NC(=O)c1cc(N(C)C2CCCCC2)ncn1` [Example 1-21], the negative-log EC50 (pEC50) is 6.18.

Turning to `Cc1cc(O)ccc1NC(=O)c1cc(NC2CCCCCC2)ncn1` [Example 1-23], the pEC50 was 6.01.

As to `Cc1cc(O)ccc1NC(=O)c1cc(NC2CCCCC2C)ncn1` (stereo not shown) [Example 1-24], the pEC50 was 5.77.

On to `COc1cc(NS(C)(=O)=O)ccc1NC(=O)c1cc(NC2CCCCC2)ncn1` [Example 1-27], for which the pEC50 is 6.43.

As for `CN(c1cc(C(=O)Nc2ccc(S(N)(=O)=O)cc2)ncn1)C1CCCCC1` [Example 1-30], the negative-log EC50 (pEC50) is 6.17.

Regarding `CCNS(=O)(=O)c1ccc(NC(=O)c2cc(N(C)C3CCCCC3)ncn2)cc1` [Example 1-31], the negative-log EC50 (pEC50) was 5.70.

With `Cc1cc(O)ccc1NC(=O)c1cc(N(C)C2CCC(C)CC2)ncn1` (stereo not shown) [Example 1-32], the negative-log EC50 (pEC50) was 6.21.

As to `CN(c1cc(C(=O)Nc2ccc(S(=O)(=O)NCCO)cc2)ncn1)C1CCCCC1` [Example 1-37], the pEC50 is 6.04.

For `COCCNS(=O)(=O)c1ccc(NC(=O)c2cc(N(C)C3CCCCC3)ncn2)cc1` [Example 1-42], the negative-log EC50 (pEC50) is 5.64.

As for `CN(c1cc(C(=O)Nc2ccnc3ccccc23)ncn1)C1CCCCC1` [Example 1-43], the negative-log EC50 (pEC50) was 5.87.

`NCc1ccc(NC(=O)c2cc(N(CC3CC3)C3CCCCC3)ncn2)cc1` [Example 1-48]: the pEC50 is 7.41.

`O=C(Nc1ccncc1)c1cc(N(CC2CC2)C2CCCCC2)ncn1` [Example 1-49]: the pEC50 was 6.97.

Regarding `NC(=O)c1ccc(NC(=O)c2cc(N(CC3CC3)C3CCCCC3)ncn2)cc1` [Example 1-50], the pEC50 is 7.14.

On to `O=C(Nc1ccc(S(=O)(=O)NCC(O)CO)cc1)c1cc(N(CC2CC2)C2CCCCC2)ncn1` (stereo not shown) [Example 1-51], for which the pEC50 is 7.22.

For the molecule `CCOCN(CCOC)c1cc(C(=O)Nc2ccc(S(N)(=O)=O)cc2C)ncn1` [Example 1-59], the pEC50 was 6.25.

Consider `Cc1cc(S(N)(=O)=O)ccc1NC(=O)c1cc(OC2CCCCC2)ncn1` [Example 1-65], for which the pEC50 was 4.88.

For the molecule `COCCN(c1cc(C(=O)Nc2ccc3[nH]ncc3c2)ncn1)C1CCCCC1` [Example 1-66], the pEC50 is 7.49.

As for `CCCN(c1cc(C(=O)Nc2ccc3[nH]ncc3c2)ncn1)C(C)C` [Example 1-67], the pEC50 is 7.17.

In the case of `COCCN(CCOC)c1cc(C(=O)Nc2ccc3[nH]ncc3c2)ncn1` [Example 1-70], the pEC50 was 5.95.

As to `CCCN(CCC)c1cc(C(=O)Nc2ccc(CN)cc2)ncn1` [Example 1-72], the pEC50 is 6.30.

Regarding `CC(C)(C)OC(=O)CNCc1ccc(NC(=O)c2cc(N(CC3CC3)C3CCCCC3)ncn2)cc1` [Example 1-73], the negative-log EC50 (pEC50) is 6.14.

With `CCC(NCc1ccc(NC(=O)c2cc(N(CC3CC3)C3CCCCC3)ncn2)cc1)C(=O)OC` (stereo not shown) [Example 1-74], the pEC50 is 5.67.

With `CN(CC(=O)OC(C)(C)C)Cc1ccc(NC(=O)c2cc(N(CC3CC3)C3CCCCC3)ncn2)cc1` [Example 1-75], the pEC50 is 5.57.

Regarding `O=C(Nc1ccc(CN2CCNCC2)cc1)c1cc(N(CC2CC2)C2CCCCC2)ncn1` [Example 1-78], the pEC50 is 6.48.

`CCC(NCc1ccc(NC(=O)c2cc(N(CC3CC3)C3CCCCC3)ncn2)cc1)C(=O)O` (stereo not shown) [Example 1-80]: the pEC50 is 6.54.

Turning to `COC(=O)C(C)(C)NCc1ccc(NC(=O)c2cc(N(CC3CC3)C3CCCCC3)ncn2)cc1` [Example 1-83], the negative logarithm of the EC50 (pEC50) is 5.94.

Turning to `COCCN(c1cc(C(=O)Nc2ccc3[nH]ncc3c2)ncn1)C(C)C` [Example 1-87], the negative-log EC50 (pEC50) is 6.67.

Consider `CCCN(CC1CC1)c1cc(C(=O)Nc2ccc(CN)cc2)ncn1` [Example 1-88], for which the negative-log EC50 (pEC50) was 7.00.

As for `COCCN(CC1CC1)c1cc(C(=O)Nc2ccc(CN)cc2)ncn1` [Example 1-89], the negative-log EC50 (pEC50) is 5.83.

Turning to `CCCN(CC1CC1)c1cc(C(=O)Nc2ccc3c(c2)CCNC3)ncn1` [Example 1-91], the negative-log EC50 (pEC50) is 6.84.

For `CCCN(CC1CC1)c1cc(C(=O)Nc2ccc3c(c2)CNCC3)ncn1` [Example 1-92], the negative logarithm of the EC50 (pEC50) was 6.63.

For the molecule `CCCN(CC1CC1)c1cc(C(=O)Nc2ccc(CN3CCOCC3)cc2C)ncn1` [Example 1-93], the negative-log EC50 (pEC50) was 5.83.

In the case of `CCCN(CC1CC1)c1cc(C(=O)Nc2ccc(CN(C)C)cc2C)ncn1` [Example 1-94], the pEC50 is 6.58.

As for `CCCN(CC1CC1)c1cc(C(=O)Nc2ccc(CNCCOC)cc2C)ncn1` [Example 1-95], the pEC50 was 6.09.

For `CCCN(CC1CC1)c1cc(C(=O)Nc2ccc(CN(C)CCO)cc2C)ncn1` [Example 1-96], the negative logarithm of the EC50 (pEC50) is 6.41.

For the molecule `CCCN(CC1CC1)c1cc(C(=O)Nc2ccc(CN3CCCC3=O)cc2C)ncn1` [Example 1-98], the pEC50 was 6.15.

Turning to `Cc1cc(S(=O)(=O)N(C)CC(=O)O)ccc1NC(=O)c1cc(N(CC2CC2)C2CCCCC2)ncn1` [Example 1-101], the pEC50 was 6.90.

For `CCCN(CC1CC1)c1cc(C(=O)Nc2ccc(S(=O)(=O)N(C)CC(=O)O)cc2C)ncn1` [Example 1-102], the pEC50 was 5.91.

With `CCCN(CC1CC1)c1cc(C(=O)Nc2ccc(S(=O)(=O)NCC(=O)O)cc2C)ncn1` [Example 1-103], the pEC50 was 6.68.

Turning to `CCCN(CC1CC1)c1cc(C(=O)Nc2ccc(CNC(C)C(=O)O)cc2C)ncn1` (stereo not shown) [Example 1-104], the pEC50 was 6.29.

On to `CCCN(CC1CC1)c1cc(C(=O)Nc2ccc(S(=O)(=O)NCCOC)cc2C)ncn1` [Example 1-106], for which the pEC50 was 6.69.

For the molecule `CCCN(CC1CC1)c1cc(C(=O)Nc2ccc(S(=O)(=O)NCCCC(=O)O)cc2C)ncn1` [Example 1-108], the pEC50 was 6.62.

`CCCN(CC1CC1)c1cc(C(=O)Nc2ccc(S(C)(=O)=O)cc2)ncn1` [Example 1-110]: the negative logarithm of the EC50 (pEC50) was 5.63.

With `CCCN(CC1CC1)c1cc(C(=O)Nc2ccc(CNC)cc2C)ncn1` [Example 1-111], the pEC50 is 6.25.

On to `CS(=O)(=O)c1ccc(NC(=O)c2cc(N(CC3CC3)C3CCCCC3)ncn2)cc1` [Example 1-112], for which the pEC50 is 6.71.

Turning to `CCCN(CC1CC1)c1cc(C(=O)Nc2ccc3nn(CC(=O)N(C)C)cc3c2)ncn1` [Example 1-114], the pEC50 is 5.88.

For the molecule `CCCN(CC1CC1)c1cc(C(=O)Nc2ccc3c(cnn3CC(=O)N(C)C)c2)ncn1` [Example 1-115], the pEC50 is 5.55.

With `CCCN(CC1CC1)c1cc(C(=O)Nc2ccc3c(cnn3CC(=O)O)c2)ncn1` [Example 1-116], the negative logarithm of the EC50 (pEC50) was 5.49.

With `CCCN(CC1CC1)c1cc(C(=O)Nc2ccc3c(cnn3CC(N)=O)c2)ncn1` [Example 1-117], the pEC50 was 5.97.

As for `CCCN(CC1CC1)c1cc(C(=O)Nc2ccc3nn(CC(N)=O)cc3c2)ncn1` [Example 1-118], the pEC50 is 5.20.

For the molecule `CCCN(CC1CC1)c1cc(C(=O)Nc2ccc(CS(=O)(=O)CCC(=O)OCC)cc2)ncn1` [Example 1-119], the pEC50 is 5.30.

In the case of `CCCN(CC1CC1)c1cc(C(=O)Nc2ccc3nn(CC(=O)OCC)cc3c2)ncn1` [Example 1-120], the negative logarithm of the EC50 (pEC50) is 6.22.

With `CCCN(CC1CC1)c1cc(C(=O)Nc2ccc3nn(CC(=O)O)cc3c2)ncn1` [Example 1-121], the pEC50 is 5.99.

Regarding `O=C(Nc1ccc(C(=O)O)c(F)c1)c1cc(N(CC2CC2)C2CCCCC2)ncn1` [Example 1-122], the pEC50 is 5.36.

As for `CCCN(CC1CC1)c1cc(C(=O)Nc2ccc3[nH]nc(CCC(=O)OC)c3c2)ncn1` [Example 1-123], the pEC50 was 6.07.

Regarding `CCCN(CC1CC1)c1cc(C(=O)Nc2ccc(S(=O)(=O)CCCC(=O)O)cc2)ncn1` [Example 1-124], the pEC50 is 5.82.

`CCCN(CC1CC1)c1cc(C(=O)Nc2ccc3[nH]cnc3c2)ncn1` [Example 1-125]: the pEC50 is 5.56.

With `CCCN(CC1CC1)c1cc(C(=O)Nc2ccc(CN(C)CC(=O)O)cc2C)ncn1` [Example 1-128], the pEC50 is 6.09.

In the case of `CCCN(CC1CC1)c1cc(C(=O)Nc2ccc3[nH]nc(CCC(=O)O)c3c2)ncn1` [Example 1-129], the pEC50 was 5.77.

As for `CCOC(=O)CCS(=O)(=O)Cc1ccc(NC(=O)c2cc(N(CC3CC3)C3CCCCC3)ncn2)cc1` [Example 1-130], the pEC50 is 6.27.

As to `CCOC(=O)CCCS(=O)(=O)c1ccc(NC(=O)c2cc(N(CC3CC3)C3CCCCC3)ncn2)cc1` [Example 1-131], the pEC50 is 5.77.

As to `O=C(O)CCS(=O)(=O)Cc1ccc(NC(=O)c2cc(N(CC3CC3)C3CCCCC3)ncn2)cc1` [Example 1-133], the pEC50 was 6.65.

With `CCCN(CC1CC1)c1cc(C(=O)Nc2cccc3[nH]ncc23)ncn1` [Example 1-134], the pEC50 was 6.23.

Consider `CCCN(CC1CC1)c1cc(C(=O)Nc2ccc(CS(=O)(=O)CCC(=O)O)cc2)ncn1` [Example 1-135], for which the pEC50 was 5.51.

With `Cn1cnnc1-c1ccc(NC(=O)c2cc(N(CC3CC3)C3CCCCC3)ncn2)cc1` [Example 1-136], the negative logarithm of the EC50 (pEC50) is 5.69.

Values taken from patent US9150519B2, “6-amino-pyrimidine-4-carboxamide derivatives and related compounds which bind to the sphingosine 1-phosphate (S1P) receptor for the treatment of multiple sclerosis” (MERCK SERONO SA, priority 2007, dated 2015).
